# Assay results reported in patent US20240158446A1, “CYCLIC COMPOUND HAVING SELECTIVE INHIBITORY ACTION ON KRAS OVER HRAS AND NRAS” (CHUGAI SEIYAKU KABUSHIKI KAISHA, priority 2021, published 2024).
# What was measured:
# [1] = molecular target: GDP-bound NRAS wild-type protein (Homo sapiens, UniProt P01111); assay: Binding to NRAS by surface plasmon resonance (SPR), Single Cycle Kinetics; conditions: SPR, GDP-bound NRAS wild-type protein vs GDP-bound KRAS wild-type protein
# [2] = molecular target: GDP-bound HRAS wild-type protein (Homo sapiens, UniProt P01112); assay: Binding to HRAS by surface plasmon resonance (SPR), Single Cycle Kinetics; conditions: SPR, GDP-bound HRAS wild-type protein vs GDP-bound KRAS wild-type protein
# GDP-bound HRAS wild-type protein, sequence (P01112 whole entry): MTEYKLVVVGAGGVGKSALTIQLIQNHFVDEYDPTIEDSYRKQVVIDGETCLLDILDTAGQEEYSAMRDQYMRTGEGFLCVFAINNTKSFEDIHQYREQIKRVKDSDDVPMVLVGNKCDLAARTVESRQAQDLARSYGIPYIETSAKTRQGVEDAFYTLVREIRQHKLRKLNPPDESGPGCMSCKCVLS
# [3] = molecular target: GDP-bound KRAS wild-type protein (Homo sapiens, UniProt P01116); assay: Binding to KRAS by surface plasmon resonance (SPR), Single Cycle Kinetics; conditions: SPR, Single Cycle Kinetics, GDP-bound KRAS wild-type protein; read-out: KRAS KD
# GDP-bound KRAS wild-type protein, sequence (P01116 whole entry): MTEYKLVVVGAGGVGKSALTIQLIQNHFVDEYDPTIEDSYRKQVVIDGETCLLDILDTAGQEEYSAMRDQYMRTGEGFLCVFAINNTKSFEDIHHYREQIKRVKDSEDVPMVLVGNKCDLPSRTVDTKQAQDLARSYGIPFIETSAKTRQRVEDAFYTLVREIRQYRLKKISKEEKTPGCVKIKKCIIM
# GDP-bound NRAS wild-type protein, sequence (P01111 whole entry): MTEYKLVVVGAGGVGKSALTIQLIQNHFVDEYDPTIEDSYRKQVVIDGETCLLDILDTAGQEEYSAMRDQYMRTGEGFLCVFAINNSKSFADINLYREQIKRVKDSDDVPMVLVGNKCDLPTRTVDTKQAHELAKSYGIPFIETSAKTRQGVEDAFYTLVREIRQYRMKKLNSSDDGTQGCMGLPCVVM
SMILES,Kd [3] [nM],NRAS/KRAS (ratio of KD value for NRAS to KD value for KRAS) [1],HRAS/KRAS (ratio of KD value for HRAS to KD value for KRAS) [2]
CCO[C@@H]1C[C@H]2C(=O)NC3(CC(C)(C)C3)C(=O)N(C)[C@@H](C(CC)CC)C(=O)N(C)[C@H](C(=O)N(C)C)CC(=O)N(C)[C@@H](C)C(=O)N[C@@H]([C@@H](C)CC)C(=O)N(C)CC(=O)N(C)[C@H]3C/C=C\CCN(C3=O)[C@@H](Cc3ccc(C)cc3)C(=O)N(C)CC(=O)N[C@@H](CCc3cc(F)c(C(F)(F)F)c(F)c3)C(=O)N2C1 [PP2143],0.31,A (a compound having 10 or more and less than 20 is denoted as A),A (a compound having 10 or more and less than 20 is denoted as A)
CCO[C@@H]1C[C@H]2C(=O)NC3(CC(C)(C)C3)C(=O)N(C)[C@@H](C(CC)CC)C(=O)N(C)[C@H](C(=O)N3CCCC3)CC(=O)N(C)[C@@H](COC)C(=O)N[C@@H]([C@@H](C)CC)C(=O)N(C)CC(=O)N(C)[C@H]3C/C=C\CCN(C3=O)[C@@H](Cc3ccc(C)cc3)C(=O)N(C)CC(=O)N[C@@H](CCc3ccc(C(F)(F)F)c(Cl)c3)C(=O)N2C1 [PP2144],0.48,AA (a compound having 20 or more is denoted as AA),A (a compound having 10 or more and less than 20 is denoted as A)
CCO[C@@H]1C[C@H]2C(=O)NC3(CC(C)(C)C3)C(=O)N(C)[C@@H](C(CC)CC)C(=O)N(C)[C@H](C(=O)N3CCCC3)CC(=O)N(C)[C@@H](C)C(=O)N[C@@H]([C@@H](C)CC)C(=O)N(C)CC(=O)N(C)[C@H]3C/C=C\CCN(C3=O)[C@@H](Cc3ccc(C)cc3)C(=O)N(C)CC(=O)N[C@@H](CCc3cc(F)c(C(F)(F)F)c(F)c3)C(=O)N2C1 [PP2145],0.39,A (a compound having 10 or more and less than 20 is denoted as A),A (a compound having 10 or more and less than 20 is denoted as A)
CCC[C@H]1C(=O)N[C@@H]([C@@H](C)CC)C(=O)N(C)CC(=O)N(C)[C@H]2C/C=C\CCN(C2=O)[C@@H](Cc2ccc(C)cc2)C(=O)N(C)CC(=O)N[C@@H](CCc2ccc(C(F)(F)F)c(Cl)c2)C(=O)N2C[C@H](OCC)C[C@H]2C(=O)NC2(CC(C)(C)C2)C(=O)N(C)[C@@H](C(CC)CC)C(=O)N(C)[C@H](C(=O)N(C)C)CC(=O)N1C [PP2146],0.33,A (a compound having 10 or more and less than 20 is denoted as A),A (a compound having 10 or more and less than 20 is denoted as A)
CCO[C@@H]1C[C@H]2C(=O)NC3(CC(C)(C)C3)C(=O)N(C)[C@@H](C(CC)CC)C(=O)N(C)[C@H](C(=O)N(C)C)CC(=O)N(C)[C@@H](CC)C(=O)N[C@@H]([C@@H](C)CC)C(=O)N(C)CC(=O)N(C)[C@H]3C/C=C\CCN(C3=O)[C@@H](Cc3ccc(C)cc3)C(=O)N(C)CC(=O)N[C@@H](CCc3cc(F)c(C(F)(F)F)c(F)c3)C(=O)N2C1 [PP2147],0.33,A (a compound having 10 or more and less than 20 is denoted as A),B (a compound having 3 or more and less than 10 is denoted as B)
CCO[C@@H]1C[C@H]2C(=O)NC3(CC(C)(C)C3)C(=O)N(C)[C@@H](C(CC)CC)C(=O)N(C)[C@H](C(=O)N3CCCC3)CC(=O)N(C)[C@@H](CC)C(=O)N[C@@H]([C@@H](C)CC)C(=O)N(C)CC(=O)N(C)[C@H]3C/C=C\CCN(C3=O)[C@@H](Cc3ccc(C)cc3)C(=O)N(C)CC(=O)N[C@@H](CCc3cc(F)c(C(F)(F)F)c(F)c3)C(=O)N2C1 [PP2149],0.58,A (a compound having 10 or more and less than 20 is denoted as A),A (a compound having 10 or more and less than 20 is denoted as A)
CCO[C@@H]1C[C@H]2C(=O)NC3(CC(C)(C)C3)C(=O)N(C)[C@@H](C(CC)CC)C(=O)N(C)[C@H](C(=O)N(C)C)CC(=O)N(C)[C@@H](C)C(=O)N[C@@H]([C@@H](C)CC)C(=O)N(C)CC(=O)N(C)[C@H]3C/C=C\CCN(C3=O)[C@@H](Cc3ccc(C)cc3)C(=O)N(C)CC(=O)N[C@@H](CCc3ccc(C(F)(F)F)c(Cl)c3)C(=O)N2C1 [PP2150],3.8,AA (a compound having 20 or more is denoted as AA),A (a compound having 10 or more and less than 20 is denoted as A)

# More lines, main results first:
Kd [3] [nM],SMILES,NRAS/KRAS (ratio of KD value for NRAS to KD value for KRAS) [1],HRAS/KRAS (ratio of KD value for HRAS to KD value for KRAS) [2]
0.29,CCO[C@@H]1C[C@H]2C(=O)NC3(CC(C)(C)C3)C(=O)N(C)[C@@H](C(CC)CC)C(=O)N(C)[C@H](C(=O)N(C)C)CC(=O)N(C)[C@@H](CC3CCC3)C(=O)N[C@@H]([C@@H](C)CC)C(=O)N(C)CC(=O)N(C)[C@H]3C/C=C\CCN(C3=O)[C@@H](Cc3ccc(C)cc3)C(=O)N(C)CC(=O)N[C@@H](CCc3cc(F)c(C(F)(F)F)c(F)c3)C(=O)N2C1 [PP2151],A (a compound having 10 or more and less than 20 is denoted as A),A (a compound having 10 or more and less than 20 is denoted as A)
0.67,CCO[C@@H]1C[C@H]2C(=O)NC3(CC(C)(C)C3)C(=O)N(C)[C@@H](C(CC)CC)C(=O)N(C)[C@H](C(=O)N3CCCC3)CC(=O)N(C)[C@@H](C)C(=O)N[C@@H]([C@@H](C)CC)C(=O)N(C)CC(=O)N(C)[C@H]3C/C=C\CCN(C3=O)[C@@H](Cc3ccc(C)cc3)C(=O)N(C)CC(=O)N[C@@H](CCc3ccc(C(F)(F)F)c(Cl)c3)C(=O)N2C1 [PP2152],AA (a compound having 20 or more is denoted as AA),A (a compound having 10 or more and less than 20 is denoted as A)
0.36,CCO[C@@H]1C[C@H]2C(=O)NC3(CC(C)(C)C3)C(=O)N(C)[C@@H](C(CC)CC)C(=O)N(C)[C@H](C(=O)N(C)C)CC(=O)N(C)[C@@H](CC)C(=O)N[C@@H]([C@@H](C)CC)C(=O)N(C)CC(=O)N(C)[C@H]3C/C=C\CCN(C3=O)[C@@H](Cc3ccc(C)cc3)C(=O)N(C)CC(=O)N[C@@H](CCc3ccc(C(F)(F)F)c(Cl)c3)C(=O)N2C1 [PP2154],A (a compound having 10 or more and less than 20 is denoted as A),A (a compound having 10 or more and less than 20 is denoted as A)
0.37,CCO[C@@H]1C[C@H]2C(=O)NC3(CC(C)(C)C3)C(=O)N(C)[C@@H](C(CC)CC)C(=O)N(C)[C@H](C(=O)N(C)C)CC(=O)N(C)[C@@H](CC3CC3)C(=O)N[C@@H]([C@@H](C)CC)C(=O)N(C)CC(=O)N(C)[C@H]3C/C=C\CCN(C3=O)[C@@H](Cc3ccc(C(F)(F)F)cc3)C(=O)N(C)CC(=O)N[C@@H](CCc3ccc(C(F)(F)F)c(OC)c3)C(=O)N2C1 [PP2155],A (a compound having 10 or more and less than 20 is denoted as A),B (a compound having 3 or more and less than 10 is denoted as B)
0.41,CCO[C@@H]1C[C@H]2C(=O)NC3(CC(C)(C)C3)C(=O)N(C)[C@@H](C(CC)CC)C(=O)N(C)[C@H](C(=O)N(C)C)CC(=O)N(C)[C@@H](CC3CCC3)C(=O)N[C@@H]([C@@H](C)CC)C(=O)N(C)CC(=O)N(C)[C@H]3C/C=C\CCN(C3=O)[C@@H](Cc3ccc(C)cc3)C(=O)N(C)CC(=O)N[C@@H](CCc3ccc(C(F)(F)F)c(Cl)c3)C(=O)N2C1 [PP2156],AA (a compound having 20 or more is denoted as AA),A (a compound having 10 or more and less than 20 is denoted as A)
0.19,CCO[C@@H]1C[C@H]2C(=O)NC3(CC(C)(C)C3)C(=O)N(C)[C@@H](C(CC)CC)C(=O)N(C)[C@H](C(=O)N(C)C)CC(=O)N(C)[C@@H](COC)C(=O)N[C@@H]([C@@H](C)CC)C(=O)N(C)CC(=O)N(C)[C@H]3C/C=C\CCN(C3=O)[C@@H](Cc3ccc(C(F)(F)F)cc3)C(=O)N(C)CC(=O)N[C@@H](CCc3ccc(C(F)(F)F)c(OC)c3)C(=O)N2C1 [PP2157],A (a compound having 10 or more and less than 20 is denoted as A),A (a compound having 10 or more and less than 20 is denoted as A)
0.33,CCO[C@@H]1C[C@H]2C(=O)NC3(CC(C)(C)C3)C(=O)N(C)[C@@H](C(CC)CC)C(=O)N(C)[C@H](C(=O)N3CCCC3)CC(=O)N(C)[C@@H](COC)C(=O)N[C@@H]([C@@H](C)CC)C(=O)N(C)CC(=O)N(C)[C@H]3C/C=C\CCN(C3=O)[C@@H](Cc3ccc(C(F)(F)F)cc3)C(=O)N(C)CC(=O)N[C@@H](CCc3ccc(C(F)(F)F)c(OC)c3)C(=O)N2C1 [PP2159],AA (a compound having 20 or more is denoted as AA),A (a compound having 10 or more and less than 20 is denoted as A)
0.22,CCC[C@H]1C(=O)N[C@@H]([C@@H](C)CC)C(=O)N(C)CC(=O)N(C)[C@H]2C/C=C\CCN(C2=O)[C@@H](Cc2ccc(C(F)(F)F)cc2)C(=O)N(C)CC(=O)N[C@@H](CCc2ccc(C(F)(F)F)c(OC)c2)C(=O)N2C[C@H](OCC)C[C@H]2C(=O)NC2(CC(C)(C)C2)C(=O)N(C)[C@@H](C(CC)CC)C(=O)N(C)[C@H](C(=O)N(C)C)CC(=O)N1C [PP2160],A (a compound having 10 or more and less than 20 is denoted as A),A (a compound having 10 or more and less than 20 is denoted as A)
0.2,CCO[C@@H]1C[C@H]2C(=O)NC3(CC(C)(C)C3)C(=O)N(C)[C@@H](C(CC)CC)C(=O)N(C)[C@H](C(=O)N(C)C)CC(=O)N(C)[C@@H](CC(C)C)C(=O)N[C@@H]([C@@H](C)CC)C(=O)N(C)CC(=O)N(C)[C@H]3C/C=C\CCN(C3=O)[C@@H](Cc3ccc(C(F)(F)F)cc3)C(=O)N(C)CC(=O)N[C@@H](CCc3ccc(C(F)(F)F)c(OC)c3)C(=O)N2C1 [PP2161],AA (a compound having 20 or more is denoted as AA),A (a compound having 10 or more and less than 20 is denoted as A)
